Assay results taken from patent US20240336748A1, “A METHOD FOR PREPARING HYALURONIC ACID GRAFTED POLY(N-ISOPROPYLACRYLAMIDE) (HA-G-PNI-PAM)” (NABSOLUTE COMPANY LIMITED, priority 2021, published 2024).

System: fibroblast L929 cell
Assay: Side effect test, toxic reduction of asiatic acid, PrestoBlue assay
Type: cell-based
Conditions: 12.5 μM asiatic acid dissolved in DMSO in cell culture media
Excerpt: Side effect test of Sample 2 in colloid form at concentration of 0, 0.1, 0.15 and 0.25% w/v form was studied by considering the toxic reduction of asiatic acid in fibroblast L929 cell via PrestoBlue™ assay.

Work on `C[C@H]1[C@H](C)CC[C@]2(C(=O)O)CC[C@]3(C)C(=CC[C@@H]4[C@@]5(C)C[C@@H](O)[C@H](O)[C@@](C)(CO)[C@@H]5CC[C@]43C)[C@H]12` [asiatic acid] yielded a Cell viability of 5%.
